Target: TNFα trimer (Homo sapiens, UniProt P01375)
Assay: TNFα FP Competitive Binding Assay
Details: TNFα FP competitive binding assay; class symbols A/B/C; read-out: TNF IC50
Description: TNFα FP Competitive Binding Assay
• 1. Assay Buffer: Prepare 1× Assay Buffer (Water with 47 mM HEPES, 47 mM NaCl, 0.9 mM EDTA, 0.0071% Triton X-100) by adding 25 mL of 1 M HEPES, 5 mL of 5 M NaCl, 1 mL of 0.5 M EDTA, and 375 μL of a 10% Triton X-100 stock to a fresh 500 mL bottle of water. • 2. Assay Mixture: Prepare fresh Assay Mixture containing 20 nM TNFα trimer (60 nM protein) and 1 nM 2′,7′-difluoro-3′,6′-dihydroxy-N-(2-(2-(2-((4-(isoquinolin-8-yl)-3-(4-(isoquinolin-8-yl)phenethoxy)benzyl)oxy)ethoxy)ethoxy)ethyl)-3-oxo-3H-spiro[isobenzofuran-1,9′-xanthene]-5-carboxamide probe in 1× Assay Buffer.
Compound Plate Preparation
Manual 12-point 1:3 Dilution Plates: (384 well polypropylene plates)
Top concentration of compounds, 10 mM in DMSO, dispensed in rows A-O in columns 1 and 13. Compounds are serially diluted 1:3 with DMSO in columns 2-12 or 14-24 using a 16-channel Matrix pipettor. Plates stored at −20° C.
Discovery Preps 12-point 1:3 Dilution Plates: (384 well assay plates)
Top concentration, 5 mM in DMSO, of compounds placed in rows A-O in columns 1 and 13. Compounds are serially diluted 1:3 with DMSO in columns 2-12 or 14-24. Compound solutions are dispensed into replicate assay plates at 410 nL per well. Plates stored at 4° C.
TNFα FP Competitive Binding Assay Protocol
• 1. Compound plates are warmed to rt. • 2. Fresh Assay Mixture is prepared. • 3. Assay Mixture (20 μL) is dispensed each well of 384 assay plates using a Thermo Multidrop Combi or 16-channel Matrix pipettor. If Manual 12-point 1:3 Dilution Plates are to be tested, Assay Mix is dispensed into empty plates. Discovery Preps 12-point 1:3 Dilution Plates already contain 410 nL compound solution in DMSO. • 4. For Manual 12-point 1:3 Dilution Plates, 0.7 μL is manually transferred using a 16-channel Matrix pipettor to replicate assay plates containing 20 μL Assay Mixture for a final top compound concentration of 338 μM (3.4% DMSO). • 5. For Discovery Preps 12-point 1:3 Dilution Plates, 20 μL Assay Mixture added the 410 nL compound solution already in the plates yields a final top compound concentration of 100 μM (2.0% DMSO). • 6. Background subtraction controls are wells P1-P8 containing only Assay Buffer. The low % inhibition controls are wells P9-P16 containing only Assay Mix. The high % inhibition are wells P17-P24 containing only 1 nM 2′,7′-difluoro-3′,6′-dihydroxy-N-(2-(2-(2-((4-(isoquinolin-8-yl)-3-(4-(isoquinolin-8-yl)phenethoxy)benzyl)oxy)ethoxy)ethoxy)ethyl)-3-oxo-3H-spiro[isobenzofuran-1,9′-xanthene]-5-carboxamide probe in 1× Assay Buffer. • 7. Plates are incubated at […] for 18-24 h in 37° C. incubator (CO2 is off). • 8. Prior to reading the assay, the plates are placed in a dark cabinet to equilibrate at rt for one hour. • 9. Background-subtracted fluorescence polarization (mP) is measured using a PerkinElmer Envision plate reader. • 10. Raw data is entered into Assay Explorer and dose-response curves are generated using a variable slope curve.

TNFα trimer, sequence (P01375 77-233 limits assumed): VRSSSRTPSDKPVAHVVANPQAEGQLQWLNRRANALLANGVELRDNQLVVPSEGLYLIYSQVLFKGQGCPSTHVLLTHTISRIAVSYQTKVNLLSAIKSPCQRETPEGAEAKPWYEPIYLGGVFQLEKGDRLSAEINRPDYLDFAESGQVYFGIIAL

| SMILES | IC50 |
| --- | --- |
| c1ccc(C2C3CC(C3)c3nc4ccc(-c5ccnc(OC6CCOCC6)c5)nc4n32)cc1 (stereo not drawn) [BD.1] | 1000 to 10000 nM |
| CN1CC[C@@H](Oc2cc(-c3ccc4nc5n(c4n3)[C@@H](c3ccccc3)CC5)ccn2)C1 [AQ.6] | 1000 to 10000 nM |
| OC(CC1CC1)c1ncc(-c2ccc3nc4n(c3n2)[C@@H](c2ccccc2)CC4)cn1 (stereo partly drawn) [AL.2] | 1000 to 10000 nM |
| OC1CCCN(c2ncc(-c3ccc4nc5n(c4n3)C3(CCOc4ccccc43)COC5)cn2)C1 (stereo not drawn) [BB.3] | < 1000 nM |
| OC(c1ncc(-c2ccc3nc4n(c3n2)[C@@H](c2ccccc2)CC4)cn1)C1CCOCC1 (stereo partly drawn) [AL.3] | 1000 to 10000 nM |
| COc1ccccc1C1CCc2nc3ccc(-c4cnc(N5CCN6C(=O)NCC6C5)nc4)nc3n21 (stereo not drawn) [AD.2] | < 1000 nM |
| c1ccc2c(c1)OCC21COCc2nc3ccc(-c4cnc(NC5CCOC5)nc4)nc3n21 (stereo not drawn) [AU.3] | 1000 to 10000 nM |
| COc1ccccc1[C@H]1CCc2nc3ccc(-c4cnc(N5CCN6C(=O)NC[C@H]6C5)nc4)nc3n21 [AO.2] | < 1000 nM |
| COCCn1ccc(-c2ccc3nc4n(c3n2)[C@@H](c2ccccc2)CC4)cc1=O [AW.2] | 1000 to 10000 nM |
| CC1(c2ccccc2)CCc2nc3ccc(-c4cnc(N5CCN6C(=O)NCC6C5)nc4)nc3n21 (stereo not drawn) [AH.9] | < 1000 nM |
| COc1ccccc1[C@@H]1CCc2nc3ccc(-c4cnc(N5CCN6C(=O)NC[C@@H]6C5)nc4)nc3n21 [AP.1] | 1000 to 10000 nM |

Now from value to compound:

| IC50 | SMILES |
| --- | --- |
| 1000 to 10000 nM | N#Cc1ccc(-c2ccc3nc4n(c3c2)C(c2ccccc2)COC4)cn1 (stereo not drawn) [T.16] |
| 1000 to 10000 nM | COc1ncc(-c2ccc3nc4n(c3c2)C(c2ccccc2)COC4)cn1 (stereo not drawn) [T.22] |
| 1000 to 10000 nM | CC(C)(O)c1ncc(-c2ccc3nc4n(c3c2)[C@H](c2ccccc2)CCC4)cn1 [Y.3] |
| 10000 to 100000 nM | c1ccc(C2COCc3nc4ccc(-c5cnc6nccnc6c5)cc4n32)cc1 (stereo not drawn) [T.19] |
| 1000 to 10000 nM | Fc1cccc(C2COCc3nc4ccc(-c5cnc(N6CCOCC6)nc5)cc4n32)c1 (stereo not drawn) [U.2, 4-(3-Fluorophenyl)-7-(2-morpholinopyrimidin-5-yl)-3,4-dihydro-1H-benzo[4,5]imidazo[2,1-c][1,4]oxazine] |
| 1000 to 10000 nM | c1ccc(C2COCc3nc4ccc(-c5cnc(-n6ccnc6)cn5)cc4n32)cc1 (stereo not drawn) [T.9] |

Same assay, conditions: Table BK; read-out: TNF IC50

| IC50 | SMILES |
| --- | --- |
| 1000 to 10000 nM | OC[C@H]1CC[C@H](COc2cc(-c3ccc4nc5n(c4n3)[C@@H](c3ccccc3)CC5)ccn2)CC1 [BK.3] |

Same assay, conditions: Table BO; read-out: TNF IC50

| IC50 | SMILES |
| --- | --- |
| < 1000 nM | O=C1NC[C@@H]2CN(c3ncc(-c4ccc5nc6n(c5n4)C4(COCc5ccccc54)COC6)cn3)CCN12 (stereo partly drawn) [BO.2] |

Same assay, conditions: fluorescence polarization competition; 20 nM TNFα trimer, 1 nM OregonGreen488 probe; read-out: TNF IC50 (TNFα FP binding assay IC50)

| SMILES | IC50 |
| --- | --- |
| CC(C)(O)c1ncc(-c2ccc3nc4n(c3c2)C(c2ccccc2O)CCC4)cn1 (stereo not drawn) [E.2] | 10000 to 100000 nM |
| Cc1c(-c2ccc3nc4n(c3c2)C(c2ccccc2)CC4)cnn1C (stereo not drawn) [A.28] | 10000 to 100000 nM |
| O=C1NC[C@@H]2CN(c3ncc(-c4ccc5nc6n(c5c4)[C@@H](c4ccccc4)COC6)cn3)CCN12 [Example 26, (R)-7-(5-((S)-4-Phenyl-3,4-dihydro-1H-benzo[4,5]imidazo[2,1-c][1,4]oxazin-7-yl)pyrimidin-2-yl)hexahydroimidazo[1,5-a]pyrazin-3(2H)-one] | < 1000 nM |
| O=C1NCC2CN(c3ncc(-c4ccc5nc6n(c5n4)[C@@H](c4ccccc4)CC6)cn3)CCN12 (single isomer, unassigned) [Example 30] | < 1000 nM |
| CC(C)(O)c1ncc(-c2ccc3nc4n(c3c2)[C@@H](c2ccccc2OC(F)F)COC4)cn1 [Example 13, (S)-2-(5-(4-(2-(Difluoromethoxy)phenyl)-3,4-dihydro-1H-benzo[4,5]imidazo[2,1-c][1,4]oxazin-7-yl)pyrimidin-2-yl)propan-2-ol] | < 1000 nM |
| Cn1ccc(-c2ccc3nc4n(c3c2)C(c2ccccc2)CC4)c1 (stereo not drawn) [A.47] | 10000 to 100000 nM |
| CC(C)(O)c1ncc(-c2ccc3nc4n(c3n2)[C@@H](c2ccccc2)[C@@H]2C[C@H]4O2)cn1 [Example 70, 2-(5-((6R,8S,9S)-9-Phenyl-6,7,8,9-tetrahydro-6,8-epoxyimidazo[1,2-a:5,4-b′]dipyridin-2-yl)pyrimidin-2-yl)propan-2-ol] | 10000 to 100000 nM |
| Nc1ncc(-c2ccc3nc4n(c3c2)C(c2ccccc2)CC4)cn1 (stereo not drawn) [A.23] | 1000 to 10000 nM |
| c1ccc([C@H]2CCc3nc4ccc(-c5cnc(N6CCOCC6)nc5)cc4n32)cc1 [D.3] | < 1000 nM |
| COc1cncc(-c2ccc3nc4n(c3c2)C(c2ccccc2)CC4)c1 (stereo not drawn) [A.38] | 1000 to 10000 nM |
| CC(C)(O)c1ncc(-c2ccc3nc4n(c3n2)C2(CCOc3ccccc32)COC4)cn1 (stereo not drawn) [E.5, 2-(5-(6′,8′-Dihydrospiro[chroman-4,9′-pyrido[3′,2′:4,5]imidazo[2,1-c][1,4]oxazin]-2′-yl)pyrimidin-2-yl)propan-2-ol] | 1000 to 10000 nM |
| COc1ccccc1C1CCc2nc3ccc(-c4cnc(C(C)(C)O)nc4)cc3n21 (stereo not drawn) [E.3] | < 1000 nM |
| COc1ccccc1C1CCOc2nc3ccc(-c4cnc(N5CCOCC5)nc4)cn3c21 (stereo not drawn) [D.5] | < 1000 nM |
| COc1ccccc1C1CCCc2nc3ccc(-c4cnc(N5CCOCC5)nc4)cn3c21 (stereo not drawn) [Example 15, 4-(5-(9-(2-Methoxyphenyl)-6,7,8,9-tetrahydrobenzo[4,5]imidazo[1,2-a]pyridin-2-yl)pyrimidin-2-yl)morpholine] | < 1000 nM |
| c1ccc(C2CCc3nc4ccc(-c5cnc(C6CC6)nc5)cc4n32)cc1 (stereo not drawn) [A.8] | < 1000 nM |
| N#CCc1ccc(-c2ccc3nc4n(c3c2)C(c2ccccc2)CC4)cc1 (stereo not drawn) [A.7] | < 1000 nM |
| OC1CCN(c2ncc(-c3ccc4nc5n(c4n3)[C@@H](c3ccccc3)[C@@H]3C[C@H]5O3)cn2)CC1 [Example 71, 1-(5-((6R,8S,9S)-9-Phenyl-6,7,8,9-tetrahydro-6,8-epoxyimidazo[1,2-a:5,4-b′]dipyridin-2-yl)pyrimidin-2-yl)piperidin-4-ol] | 10000 to 100000 nM |

Now from value to compound:

| IC50 | SMILES |
| --- | --- |
| 1000 to 10000 nM | Cc1c(F)cccc1C1(O)CCCc2nc3ccc(-c4cnc(N5CCOCC5)nc4)cn3c21 (stereo not drawn) [I.5] |
| < 1000 nM | Cc1ccc(C)c(C2CCc3nc4ccc(-c5cnc(N6CCN7C(=O)NCC7C6)nc5)nc4n32)c1 (stereo not drawn) [N.4] |
| < 1000 nM | O=C1NCC2CN(c3ncc(-c4ccc5nc6n(c5n4)C(c4ccccc4)CC6)cn3)CCN12 (stereo not drawn) [L.4] |
| 10000 to 100000 nM | COc1cc(OC)cc(C2(O)CCCCc3nc4ccc(-c5cnc(N6CCOCC6)nc5)cn4c32)c1 (stereo not drawn) [J.9] |
| < 1000 nM | OC1CC2(CCN(c3ncc(-c4ccc5nc6n(c5c4)[C@@H](c4ccccc4)CC6)cn3)CC2)C1 [F.1] |
| 1000 to 10000 nM | CN1CCC(N2CCN(c3ncc(-c4ccc5nc6n(c5c4)[C@@H](c4ccccc4)COC6)cn3)CC2)CC1 [G.13] |
| < 1000 nM | FC1(F)CCN(c2ncc(-c3ccc4nc5n(c4n3)C(c3ccccc3)COC5)cn2)CC1 (stereo not drawn) [Example 82] |
| < 1000 nM | O[C@H]1CC[C@H](Oc2cc(-c3ccc4nc5n(c4n3)[C@@]3(COC5)COc4ccccc43)ccn2)CC1 [Example 74, (1S,4r)-4-((4-((S)-6′,8′-Dihydro-2H-spiro[benzofuran-3,9′-pyrido[3′,2′:4,5]imidazo[2,1-c][1,4]oxazin]-2′-yl)pyridin-2-yl)oxy)cyclohexanol] |
| 1000 to 10000 nM | c1ccc(C2CCc3nc4cnc(-c5cnc(N6CCOCC6)nc5)cc4n32)cc1 (stereo not drawn) [P.1] |
| < 1000 nM | OC1CCN(c2ncc(-c3ccc4nc5n(c4n3)C(c3cccc(F)c3)CC5)cn2)CC1 (stereo not drawn) [M.4, 1-(5-(8-(3-fluorophenyl)-7,8-dihydro-6H-pyrrolo[2′,1′:2,3]imidazo[4,5-b]pyridin-2-yl)pyrimidin-2-yl)piperidin-4-ol] |
| < 1000 nM | OC1CCN(c2ncc(-c3ccc4nc5n(c4n3)C(c3ccccc3)CC5)cn2)CC1 (stereo not drawn) [L.3, 1-(5-(8-phenyl-7,8-dihydro-6H-pyrrolo[2′,1′:2,3]imidazo[4,5-b]pyridin-2-yl)pyrimidin-2-yl)piperidin-4-ol] |
| < 1000 nM | CC(C)(N)c1ncc(-c2ccc3nc4n(c3n2)C2(CCc3ccccc32)COC4)cn1 (stereo not drawn) [Example 80, 2-(5-(2,3-Dihydro-6′H,8′H-spiro[indene-1,9′-pyrido[3′,2′:4,5]imidazo[2,1-c][1,4]oxazin]-2′-yl)pyrimidin-2-yl)propan-2-amine] |
